Data set [1] concerns the target T1, HDAC 8 (Homo sapiens, UniProt Q9BY41).
T1 construct: purchased Active Motif, Belgium
T1 sequence (Q9BY41 1-377): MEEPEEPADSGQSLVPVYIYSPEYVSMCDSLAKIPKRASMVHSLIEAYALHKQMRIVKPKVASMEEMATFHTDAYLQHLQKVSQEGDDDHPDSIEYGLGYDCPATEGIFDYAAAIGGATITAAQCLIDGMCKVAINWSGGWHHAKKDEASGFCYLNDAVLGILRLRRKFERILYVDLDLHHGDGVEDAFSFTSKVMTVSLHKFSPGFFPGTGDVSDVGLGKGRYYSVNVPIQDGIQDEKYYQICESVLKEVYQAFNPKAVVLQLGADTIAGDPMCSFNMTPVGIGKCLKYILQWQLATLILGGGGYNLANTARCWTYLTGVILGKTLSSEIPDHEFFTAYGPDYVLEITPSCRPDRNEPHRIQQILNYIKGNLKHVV
Description: Fluorometric HDAC assay, recombinant HDAC8. In kind it is biochemical. The protocol:
(§1) The HDACi effect against HeLa nuclear extracts and recombinant proteins were measured using a fluorometric HDAC assay kit (Active Motif, Belgium) according to the manufacturer's instructions. […] A negative control containing trichostatin A at a final concentration of 2 μM was analyzed for each independent experiment.

Data set [2] concerns T. gondii deacetylase activity (total protein extract). Put plainly: Deacetylase activity of total protein extract of T. gondii tachyzoites. In kind it is biochemical, Toxoplasma gondii. As to conditions: 0.125 μM. The protocol: as §1
HDAC activity was determined from total protein extracted from T. gondii.

A short description of data set [3]: Cytotoxicity, MTT assay, THP-1. As to conditions: human, THP-1 cells (monocytic cell line); MTT assay. In kind it is cell-based, human. The method, then:
(§2) The human monocytic cell line THP-1 was cultivated in RPMI medium supplemented with 10% FCS, 2 mM GlutaMAX, 100 U/ml penicillin, and 100 μg/ml streptomycin. HFF cells were cultivated in Dulbecco's modified Eagle's medium (DMEM) with Earle's salts containing 10% FCS, 10 mM HEPES, 1 mM sodium pyruvate, 2 mM GlutaMAX, 100 U/ml penicillin, and 100 μg/ml streptomycin. The THP-1 and HFF cells were maintained in a 5% CO2 incubator at 37 °C. Cytotoxicity was evaluated via the MTT assay, and the IC50 values were calculated using Prism software (Prism 4 for Mac OS X, version 5.0b, December, 2008).
In general terms: Formazan colour is commonly taken as a measure of viable cells.

Data set [4] concerns THP-1 cells. Put plainly: Cytotoxicity, MTT assay, THP-1. In kind it is cell-based, human. The method, then:
as §2

In data set [5] the test system is L. infantum MHOM/MA/67/ITMAP-264. Put plainly: Antileishmanial activity, L. infantum promastigotes (luciferase expressing strain). In kind it is cell-based, Leishmania infantum. The protocol:
The antitrypanosomatid activity of the compounds was ascertained as follows. Leishmania parasites were cultured at 26 °C in SDM-79 medium supplemented with 10% fetal calf serum (FCS), and the antileishmanial activity was determined according to a previously published protocol for LUC-expressing and wild-type Leishmania ([Sereno et al., 2001], [Abbassi et al., 2008]). Trypanosoma brucei gambiense were grown at 26 °C in Cunningham's medium supplemented with 10% FCS, 2 mM GlutaMAX-1 (Gibco, USA), 100 U/ml penicillin, 100 μg/ml streptomycin and […] bovine hemin. The epimastigote form of Trypanosoma cruzi (strain Y cl7 scl2, lineage Tc2) (kindly provided by Philippe Truc and Christian Barnabé, UMR 177 IRD-CIRAD InterTryp, Montpellier, France) were grown at 26 °C in liver infusion tryptose (LIT) medium, supplemented with 10% FCS, 2 mM GlutaMAX™-I, 100 U/ml penicillin, 100 μg/ml streptomycin and bovine hemin (20 mg/l) (Gibco). The antitrypanosomatids activity was determined using a protocol that was initialy set up for wild-type Leishmania ([Abbassi et al., 2008]). To assess the drug activity on Toxoplasma gondii, confluent human foreskin fibroblast (HFF) monolayers were infected with YFP-type I Rh kindly provided by B. Striepen, see ([Striepen et al., 1998]) or Tomato-type II Pru kindly provided by N. Blanchard (Toulouse), expressing parasites at 5 × 10^4 per well, which were then centrifuged for 30 s at 1300 rpm and incubated for 30 min in a water bath at 37 °C to allow invasion. The wells were then washed three times with PBS to eliminate extracellular parasites, and the drugs were added at various concentrations ranging from 1 to 50 μM. After incubation for 24 h at 37 °C in a humidified atmosphere containing 5% CO2, the cells were fixed in 2.5% methanol-free formaldehyde (Tebu-bio)/PBS for 30 min at room temperature. Nuclei were stained with Hoechst 33258 (2 μg/ml, Molecular Probes) for 20 min and then washed three times with water for 10 min each time. The number of infected cells, i.e., cells harboring a parasitophorous vacuole, and the number of parasites per vacuole were determined using an Olympus ScanR microscope ( × 20 objective) and ScanR software. The parasitic index in % compared to the control was calculated as follows: (PI=((number of parasite/100 cells in treated wells) x (% of infected macrophage in treated well)/(number of parasite/100 cells in untreated wells) x (% of infected macrophage in untreated wells))*100).

A short description of data set [6]: Cytotoxicity, MTT assay, HFF. In kind it is cell-based, human. The note with it: human, HFF cells. The method, then:
as §2

These results are taken from paper PMC6114082, “Synthesis of aminophenylhydroxamate and aminobenzylhydroxamate derivatives and in vitro screening for antiparasitic and histone deacetylase inhibitory activity” (International Journal for Parasitology: Drugs and Drug …, 2018).

The structures appear in SMILES notation. Where only a bound is given, the exact number is not on record here.

One may read the IC50 as the midpoint of a concentration-inhibition curve. With `COc1cccc(CC(=O)Nc2ccc(C(=O)NO)cc2)c1` [Compound 363, N-hydroxy-4-[2-(3-methoxyphenyl)acetamido]benzamide], the “Fold, HDAC 8” value in data set [1] (363 as compared to SAHA) was found to be 0.26. For the same compound, the IC50 in data set [1] (recombinant protein, read-out: rHDAC 8 IC50) was 0.863 ± 0.045 µM; in data set [3], 3.6 ± 0.5 µM; in data set [5] (Leishmania infantum, promastigotes, luciferase expressing strain) it was over 60 µM; in data set [6] it was 105 ± 10.5 µM. Moreover, the “inhibition of T. gondii deacetylase activity” value in data set [2] stood at 44%. Besides, the “selectivity index, THP-1 cells vs T. gondii” value in data set [4] stood at 10. Besides, the “IS^b selectivity index for L. infantum” value in data set [5] (IC50 THP-1 / IC50 Leishmania infantum (footnote)) is on record as under 1.
